According to US20230137491A1, “PEPTIDES AND USES THEREOF” (SINTICA BIOTECH SOCIETÀ A RESPONSABILITÀ LIMITATA …, priority 2020, published 2023):
Non-standard residues stand in square brackets, D forms with d.

Columns and labels:
[1] = system: melanoma cell lines (WM115, WM266-4, SKmel28, WM793B, 1205Lu); assay: MTT assay in melanoma cell lines; format: cell-based, human; details: for proliferation (MTT assay) with NSAID: WM115, WM266-4 and SKMEL28, increasing concentrations, 48 hrs
Description: 5×10^3 cells/well were seeded in 96-well culture plates. At different time points, cells were incubated with 0.5% MTT (3-(4,5-dimethylthiazol-2-yl)-2,5-diphenyltetrazolium bromide) for 4 h at 37° C. and then dissolved with 100 μl Isopropanol with 0.04N HCl. The plate was read at 560 nm with a reference filter of 650 nm. Results are expressed as viability percentage, as compared to control.
Five melanoma cell lines were used for testing the efficacy of XYZ or its non-PEGylated peptide component: WM115 and WM266-4, which are respectively the primary and metastatic melanoma derived from the same patient and expressing high levels of CD271, and SKme128, a metastatic melanoma cell line expressing low levels of CD271, WM793B, a primary melanoma, and 1205Lu derived from lung metastatic melanoma. The viability of the cell culture is assessed by MTT conversion. MTT solution is applied to the plates and placed into a cell culture incubator for 4 hours. The blue formazan metabolite produced by viable cells is then extracted into isopropanol and absorbance is measured at 570 nm using a spectrophotometer.

[2] = system: CD271 expression in melanoma cell lines; assay: CD271 protein expression by Western blotting and flow cytometry; format: cell-based, human; details: WM115, WM266-4 and SKMEL28, 1 to 2.5 mM, 48 h treatment
Description: FIG. 7. Chemotherapy up-regulates CD271 in primary and metastatic melanoma cell lines. (A) A real-time PCR using primers for intra- and extracellular CD271 receptor was performed on RNA extracts from three melanoma cell lines after treatment with carmustine (BCNU), cisplatin, dacarbazine (DTIC) or diluent. (B) Protein extracts from the three melanoma cell lines treated with different doses of cisplatin, carmustine, dacarbazine or diluent were separated on polyacrylamide gel and transferred onto nitrocellulose membranes. (C) Melanoma cell lines were treated with the chemotherapy or the diluent (see above) stained with anti CD271 mAb and analysed by flow cytometry.
FIG. 13. Non-steroid anti-inflammatory drugs (NSAID) enhance CD271 levels in melanoma cell lines. Three melanoma cell lines were treated with increasing doses of ketoprofen (A) or ibuprofen (B) and the percentage of CD271 positive cells was measured by flow cytometry.
Melanoma cell lines were treated with the chemotherapy or the diluent for 48 h, then were harvested and incubated with anti CD271 antibody (1:100 in PBS, Lab Vision Corporation, Thermo Fisher Scientific, Fremont, Calif., USA) for 20 min at 4° C. Cells were labeled with secondary antibody Alexa Fluor anti-mouse 488 (1:50, Thermo Fisher Scientific) for 20 min at 4° C. and analyzed with Epics XL flow cytometer (Beckman Coulter). […]

CC(C)Cc1ccc(C(C)C(=O)O)cc1 (centres unmarked) [ibuprofen, reference compound]
proliferation (MTT assay) with NSAID [1]: dose-dependently decreases proliferation | CD271 protein levels (percentage of CD271 positive cells, flow cytometry) [2]: increased CD271 protein levels

CC(C(=O)O)c1cccc(C(=O)c2ccccc2)c1 (centres unmarked) [ketoprofen, reference compound]
proliferation (MTT assay) with NSAID [1]: dose-dependently decreases proliferation | CD271 protein levels (percentage of CD271 positive cells, flow cytometry) [2]: increased CD271 protein levels

Ac-[dM][dL]G[dI][dI][dA]G[dK][dN][dS]G-NH2 [non-PEGylated peptide]
cell proliferation (MTT assay) ([1]; five melanoma cell lines, 48 h and 96 h after treatment, no significant difference between PEGylated and non-PEGylated form): reduce cell proliferation
